Test results: ChEMBL document CHEMBL1201862, “PubChem BioAssay data set” (2004)
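Values below derive from 48-hour exposures of cells grown in 96-well plates, with endpoints linearly interpolated between the two concentrations bracketing the appropriate inhibition level. GI50 = concentration required for 50% inhibition of growth.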 Calls of active or inactive are those of the source. Rule as the data show it: active = GI50 up to about 1.1 µM and inactive = higher.

Legend:
Experiment in all cases: NCI-60 cell line screen, 48 h
786-0 = test system: 786-0
A498 = test system: A498
A549 = test system: A549
ACHN = test system: ACHN
CAKI-1 = test system: CAKI-1
CCRF-CEM = test system: CCRF-CEM
COLO 205 = test system: COLO 205
DLD-1 = test system: DLD-1
DMS-114 = test system: DMS-114
DMS-273 = test system: DMS-273
EKVX = test system: EKVX
HCC 2998 = test system: HCC 2998
HCT-116 = test system: HCT-116
HCT-15 = test system: HCT-15
HL-60 = test system: HL-60
HOP-18 = test system: HOP-18
HOP-62 = test system: HOP-62
HOP-92 = test system: HOP-92
HT-29 = test system: HT-29
IGROV-1 = test system: IGROV-1
K562 = test system: K562
KM-20L2 = test system: KM-20L2
KM12 = test system: KM12
LOX IMVI = test system: LOX IMVI
LXFL 529 = test system: LXFL 529
M14 = test system: M14
M19-MEL = test system: M19-MEL
MOLT-4 = test system: MOLT-4
Malme-3M = test system: Malme-3M
NCI-H226 = test system: NCI-H226
NCI-H23 = test system: NCI-H23
NCI-H460 = test system: NCI-H460
NCI-H522 = test system: NCI-H522
OVCAR-3 = test system: OVCAR-3
OVCAR-4 = test system: OVCAR-4
OVCAR-5 = test system: OVCAR-5
OVCAR-8 = test system: OVCAR-8
RPMI-8226 = test system: RPMI-8226
RXF 393 = test system: RXF 393
RXF 631 = test system: RXF 631
SF-268 = test system: SF-268
SF-295 = test system: SF-295
SF-539 = test system: SF-539
SK-MEL-28 = test system: SK-MEL-28
SK-MEL-2 = test system: SK-MEL-2
SK-MEL-5 = test system: SK-MEL-5
SK-OV-3 = test system: SK-OV-3
SN12C = test system: SN12C
SNB-19 = test system: SNB-19
SNB-75 = test system: SNB-75
SNB-78 = test system: SNB-78
SR = test system: SR
SW-620 = test system: SW-620
TK-10 = test system: TK-10
U-251 = test system: U-251
UACC-257 = test system: UACC-257
UACC-62 = test system: UACC-62
UO-31 = test system: UO-31
XF498 = test system: XF498

`O=C(CCN(C(=O)O)S(=O)(=O)c1ccc(NC(=O)c2ccccc2)cc1)Nc1ccccc1` was tested, and the GI50 (786-0) was > 100 µM (inactive), the GI50 (A498) was > 100 µM (inactive) and the GI50 (A549) was > 46.5 µM (inactive). For the same compound, the GI50 (ACHN) was > 100 µM (inactive), the GI50 (CAKI-1) was > 100 µM (inactive) and the GI50 (CCRF-CEM) was > 61.7 µM (inactive). The GI50 (COLO 205) was > 61.4 µM (inactive), the GI50 (DLD-1) was > 79.8 µM (inactive) and the GI50 (DMS-114) was > 56 µM (inactive). For the same compound, the GI50 (DMS-273) was > 65.3 µM (inactive), the GI50 (EKVX) was > 100 µM (inactive) and the GI50 (HCC 2998) was > 100 µM (inactive). The GI50 (HCT-116) was > 56.6 µM (inactive), the GI50 (HCT-15) was over 58.6 µM and the GI50 (HL-60) was > 61.8 µM (inactive). For the same compound, the GI50 (HOP-18) was > 17.1 µM (inactive), the GI50 (HOP-62) was > 100 µM (inactive) and the GI50 (HOP-92) was > 100 µM (inactive). The GI50 (HT-29) was > 94.2 µM (inactive), the GI50 (IGROV-1) was > 100 µM (inactive) and the GI50 (K562) was > 59.3 µM (inactive). For the same compound, the GI50 (KM-20L2) was > 100 µM (inactive), the GI50 (KM12) was > 100 µM (inactive) and the GI50 (LOX IMVI) was > 57.7 µM (inactive). The GI50 (LXFL 529) was > 100 µM (inactive), the GI50 (M14) was > 100 µM (inactive) and the GI50 (M19-MEL) was > 76.9 µM (inactive). The GI50 (MOLT-4) was > 64.6 µM (inactive), the GI50 (Malme-3M) was > 100 µM (inactive) and the GI50 (NCI-H226) was > 100 µM (inactive). For the same compound, the GI50 (NCI-H23) was > 100 µM (inactive), the GI50 (NCI-H460) was > 61.9 µM (inactive) and the GI50 (NCI-H522) was > 100 µM (inactive). For the same compound, the GI50 (OVCAR-3) was > 100 µM (inactive), the GI50 (OVCAR-4) was > 100 µM (inactive) and the GI50 (OVCAR-5) was > 100 µM (inactive). For the same compound, the GI50 (OVCAR-8) was > 96.2 µM (inactive), the GI50 (RPMI-8226) was > 64.1 µM (inactive) and the GI50 (RXF 393) was > 100 µM (inactive). The GI50 (RXF 631) was > 100 µM (inactive), the GI50 (SF-268) was > 100 µM (inactive) and the GI50 (SF-295) was > 100 µM (inactive). The GI50 (SF-539) was > 100 µM (inactive), the GI50 (SK-MEL-28) was > 100 µM (inactive) and the GI50 (SK-MEL-2) was > 100 µM (inactive). The GI50 (SK-MEL-5) was > 100 µM (inactive), the GI50 (SK-OV-3) was > 100 µM (inactive) and the GI50 (SN12C) was > 100 µM (inactive). The GI50 (SNB-19) was > 100 µM (inactive), the GI50 (SNB-75) was > 100 µM (inactive) and the GI50 (SNB-78) was > 100 µM (inactive). The GI50 (SR) was 15.8 µM (inactive), the GI50 (SW-620) was > 55 µM (inactive) and the GI50 (TK-10) was > 100 µM (inactive). For the same compound, the GI50 (U-251) was > 75.7 µM (inactive), the GI50 (UACC-257) was > 65.3 µM (inactive) and the GI50 (UACC-62) was > 61.9 µM (inactive). For the same compound, the GI50 (UO-31) was > 100 µM (inactive) and the GI50 (XF498) was > 100 µM (inactive).

With `Cc1cc(Cl)ccc1NC(=O)CC1SC(Nc2ccccc2Cl)=NC1=O` (configuration not stated) the GI50 (786-0) was 53.8 µM (inactive), the GI50 (A498) was 65.6 µM (inactive) and the GI50 (A549) was 36.3 µM (inactive). The GI50 (ACHN) was 43.3 µM (inactive), the GI50 (CAKI-1) was 41.7 µM (inactive) and the GI50 (CCRF-CEM) was 29.6 µM (inactive). For the same compound, the GI50 (COLO 205) was 19.2 µM (inactive), the GI50 (DLD-1) was 28.1 µM (inactive) and the GI50 (DMS-114) was 21.1 µM (inactive). The GI50 (DMS-273) was 26.4 µM (inactive), the GI50 (EKVX) was 73.3 µM (inactive) and the GI50 (HCC 2998) was 52.2 µM (inactive). For the same compound, the GI50 (HCT-116) was 30.3 µM (inactive), the GI50 (HCT-15) was 39.9 µM and the GI50 (HL-60) was 15.9 µM (inactive). The GI50 (HOP-18) was > 100 µM (inactive), the GI50 (HOP-62) was > 100 µM (inactive) and the GI50 (HOP-92) was 48.9 µM (inactive). The GI50 (HT-29) was 37.1 µM (inactive), the GI50 (IGROV-1) was 49.5 µM (inactive) and the GI50 (K562) was 37.8 µM (inactive). The GI50 (KM-20L2) was 26.8 µM (inactive), the GI50 (KM12) was 33.3 µM (inactive) and the GI50 (LXFL 529) was 34.9 µM (inactive). For the same compound, the GI50 (M14) was 49.2 µM (inactive), the GI50 (M19-MEL) was 38.9 µM (inactive) and the GI50 (MOLT-4) was 30.2 µM (inactive). The GI50 (Malme-3M) was 91.8 µM (inactive), the GI50 (NCI-H226) was 24.2 µM (inactive) and the GI50 (NCI-H23) was 38.6 µM (inactive). The GI50 (NCI-H460) was 51.3 µM (inactive), the GI50 (NCI-H522) was 29.8 µM (inactive) and the GI50 (OVCAR-3) was 28.3 µM (inactive). For the same compound, the GI50 (OVCAR-4) was 41.3 µM (inactive), the GI50 (OVCAR-5) was > 100 µM (inactive) and the GI50 (OVCAR-8) was 29.6 µM (inactive). For the same compound, the GI50 (RPMI-8226) was 23.2 µM (inactive), the GI50 (RXF 393) was 26.1 µM (inactive) and the GI50 (RXF 631) was 45.6 µM (inactive). The GI50 (SF-268) was 39 µM (inactive), the GI50 (SF-295) was 52.6 µM (inactive) and the GI50 (SF-539) was 20.3 µM (inactive). The GI50 (SK-MEL-28) was 66.2 µM (inactive), the GI50 (SK-MEL-2) was 48.4 µM (inactive) and the GI50 (SK-MEL-5) was 36.6 µM (inactive). For the same compound, the GI50 (SK-OV-3) was 49.3 µM (inactive), the GI50 (SN12C) was 33.8 µM (inactive) and the GI50 (SNB-19) was 32.4 µM (inactive). The GI50 (SNB-75) was 38.7 µM (inactive), the GI50 (SNB-78) was 49.5 µM (inactive) and the GI50 (SR) was 20.6 µM (inactive). The GI50 (SW-620) was 37.2 µM (inactive), the GI50 (TK-10) was 88.5 µM (inactive) and the GI50 (U-251) was 26.4 µM (inactive). For the same compound, the GI50 (UACC-257) was 50.2 µM (inactive), the GI50 (UACC-62) was 30.3 µM (inactive) and the GI50 (UO-31) was 35.5 µM (inactive). The GI50 (XF498) was 62.1 µM (inactive).
